Data: publication PMC7419506, “KN3014, a piperidine-containing small compound, inhibits auto-secretion of IL-1β from PBMCs in a patient with Muckle–Wells syndrome” (Scientific Reports, 2020)

Target: T1, ASC (Homo sapiens, UniProt Q96P20+Q9ULZ3)
T1 construct: gene PYCARD; FLAG-ASC-PYD (N-terminal FLAG-tagged pyrin domain of ASC); with NLRP3 (NLRP3-FL-Btn, C-terminal biotinylated full-length)
Assay: ALPHA-screen protein-protein interaction inhibition, wheat germ cell-free synthesized proteins
Type: binding
Description: ALPHA-screen protein-protein interaction inhibition, wheat germ cell-free synthesized proteins on ASC | The interaction between NLRP3-FL-Btn and FLAG-ASC-PYD was disrupted by both KN3014 and KN8311 in a dose-dependent manner.

T1 sequence (Q9ULZ3 1-91 limits assumed): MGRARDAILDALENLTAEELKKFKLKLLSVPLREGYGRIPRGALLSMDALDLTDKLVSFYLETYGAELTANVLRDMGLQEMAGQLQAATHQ
T1 sequence (Q96P20 whole entry, the tested form may be a part): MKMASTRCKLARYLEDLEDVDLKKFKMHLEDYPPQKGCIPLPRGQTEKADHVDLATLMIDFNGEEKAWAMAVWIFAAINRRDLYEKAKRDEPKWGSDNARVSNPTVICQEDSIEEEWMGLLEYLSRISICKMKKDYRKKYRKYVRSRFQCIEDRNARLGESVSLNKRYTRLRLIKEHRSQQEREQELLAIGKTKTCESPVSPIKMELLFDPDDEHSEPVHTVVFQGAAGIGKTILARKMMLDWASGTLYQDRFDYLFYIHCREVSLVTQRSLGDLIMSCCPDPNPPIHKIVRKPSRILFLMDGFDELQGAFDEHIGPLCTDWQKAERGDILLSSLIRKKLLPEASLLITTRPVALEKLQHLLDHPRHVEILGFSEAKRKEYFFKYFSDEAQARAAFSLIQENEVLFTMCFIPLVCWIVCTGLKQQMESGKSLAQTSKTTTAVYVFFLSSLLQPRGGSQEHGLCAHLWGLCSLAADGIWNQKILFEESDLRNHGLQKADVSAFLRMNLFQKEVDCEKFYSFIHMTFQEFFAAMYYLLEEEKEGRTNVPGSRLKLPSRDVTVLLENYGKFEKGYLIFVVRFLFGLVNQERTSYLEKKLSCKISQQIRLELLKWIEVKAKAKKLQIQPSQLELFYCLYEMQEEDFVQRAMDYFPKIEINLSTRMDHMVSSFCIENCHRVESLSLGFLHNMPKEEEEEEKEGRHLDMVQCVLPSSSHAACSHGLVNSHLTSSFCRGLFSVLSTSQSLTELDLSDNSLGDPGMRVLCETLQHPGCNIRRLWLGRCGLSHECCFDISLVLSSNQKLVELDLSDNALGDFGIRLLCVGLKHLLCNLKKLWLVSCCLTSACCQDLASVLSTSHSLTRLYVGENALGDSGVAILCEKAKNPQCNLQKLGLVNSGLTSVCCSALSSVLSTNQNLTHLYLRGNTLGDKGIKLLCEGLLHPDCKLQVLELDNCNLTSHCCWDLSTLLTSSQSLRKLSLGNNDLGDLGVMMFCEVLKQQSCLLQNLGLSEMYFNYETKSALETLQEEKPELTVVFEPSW

Structure (SMILES): Cc1ccccc1OCC(=O)NCC(c1ccc2c(c1)CCCN2C)N1CCCCC1 (stereo not shown) [KN3014, N-(2-(1-methyl-1,2,3,4-tetrahydroquinolin-6-yl)-2-(piperidin-1-yl)ethyl)-2-(o-tolyloxy)acetamide]
- IC50: 14.6 µM
